In patent US20230303564A1, “PYRIMIDINE RING COMPOUND” (MEDSHINE DISCOVERY INC., priority 2020, published 2023):

What was measured:
CDK2/CyclinE1 = CDK2/CyclinE1 (Homo sapiens (Human), UniProt P24941); assay: CDK2/CyclinE1 enzyme activity test (ADP-Glo); type: biochemical; conditions: 150 μM ATP, 25° C. 60 minutes, read-out: CDK2/Cyclin E1 IC50
Description: CDK2/CyclinE1 Enzyme Reaction System
Enzymes, substrates, ATP, and inhibitors were diluted by kinase buffer in the kit. The compounds to be tested were diluted 5-fold with a multi-channel pipette to the eighth concentration, that is, from 50 μM to 0.65 nM, the concentration of DMSO was 5%, and a double-hole experiment was set up. 1 μL of each concentration gradient of inhibitors, 2 μL of CDK2/CyclinE1 enzyme (2 ng), 2 μL mixture of substrate and ATP (150 μM ATP, 0.1 μg/μL substrate) were added to the microplates, and the final concentration gradient of the compound was 10 μM to 0.13 nM. The reaction system was reacted at 25° C. for 60 minutes. After the reaction, 5 μL of ADP-Glo reagent was added to each well, the reaction was carried out at 25° C. for 40 minutes, after the reaction was completed, 10 μL of kinase detection reagent was added to each well, the reaction was carried out at 25° C. for 30 minutes, the multiple label analyzer was used to read the chemiluminescence with an integration time of 0.5 seconds.
(§1) The equation (Sample−Min)/(Max−Min)*100% was used to convert the raw data into inhibition rate, and the value of IC50 can be obtained by curve fitting with four parameters (obtained by log (inhibitor) vs. response-Variable slope mode in GraphPad Prism). The enzymatic inhibitory activity of the compounds of the present disclosure on CDK1/CyclinB1, CDK2/CyclinA2, CDK2/CyclinE1, CDK4/CyclinD1, CDK6/CyclinD1, CDK7/CyclinH/MAT1, CDK9/CyclinT1 was provided in Table 1.

OVCAR-3 cells = assay: Cell activity test, anti-proliferation (CellTiter Glo), OVCAR-3; type: cell-based, human; conditions: OVCAR-3, 7 days of culture
Description: 2) Day 1: Laying Cell Plates
(6) 0.7 mL of cell suspension was pipetted into the counting cup, the cells were counted on ViCell XR, and the cell suspension was diluted separately with culture medium to the required cell concentration for laying cell plates: 1000/30 ul.
(7) Microplates (2 plates) were required, 100 uL of phosphate buffered saline was added to the peripheral wells of the 384-well plate, 30 uL of cell suspension was added to the other wells, and the cell plate was placed into incubator for culture.
(1) Compound preparation: the stock solution of the compound to be tested was 10 mM.
(2) The compound to be tested was diluted 3 times with DMSO for 10 gradients.
(2) The compound to be tested was diluted with culture medium, and the highest final concentration was 10 μM.
(4) 10 μL of the compound was pipetted into the 384-well plate, and then the cell plate was placed back into the incubator for culture.
4) Adding CTG and Reading the Plate
(1) After 7 days of culture, 50 ul CellTiter Glo was added to the cell plate, shaken for 10 minutes in the dark, and left at room temperature for 5 minutes.
(2) The plate was read on Envision with the program: US LUM 384 (CPS). The experiment was originally stored in the personal disk:
1. The mean and standard deviation of 0% inhibition (DMSO row, ZPE) and 100% inhibition (PBS row, HPE) were calculated;
2. Inhibition rate (%)=(1−(sample value-average value of 100% inhibition)/(average value of 0% inhibition-average value of 100% inhibition))*100;
3. The curve was fitted by GraphPad 8.0 software;

[1] = tested on: human ovarian cancer OVCAR-3 cells subcutaneous xenograft tumor; assay: In vivo efficacy study, OVCAR-3 subcutaneous xenograft tumor BALB/c nude mouse model; conditions: for Tumor volume (Day 0): Day 0 (at grouping), OVCAR-3 xenograft, BALB/c nude mice; for Tumor volume (Day 7): 10 mg/kg from day 0 to day 7; for Tumor volume (Day 14): 10 mg/kg from day 0 to day 14; for Tumor volume (Day 21): 10 mg/kg day 0 to day 14, 30 mg/kg from day 14 to day 21
Description: In vivo efficacy study of human ovarian cancer OVCAR-3 cells subcutaneous xenograft tumor BALB/c nude mouse model
Cell culture: Human ovarian cancer OVCAR-3 cells were monolayer cultured in vitro, the culture conditions were 10% fetal bovine serum, 100 U/mL Penicillin and 100 μg/mL Streptomycin were added in RPMI 1640 medium, cultured at 37° C. 5% CO2 incubator. Conventional digestion with trypsin-EDTA was performed for passage. When the cell saturation was 80%/90% and the number reached the required level, the cells were collected, counted, and inoculated.
Animals: BALB/c nude mice, female, 6-8 weeks old, weighed 18-22 grams. A total of 95 (42+ additional 53) animals were needed, provided by the Experimental Animal Management Department of Shanghai Institute of Family Planning Sciences (formerly Shanghai Sipulbichem).
Tumor inoculation: 0.2 mL (1×10^7) OVCAR-3 cells (with matrix glue, volume ratio of 1:1) were subcutaneously inoculated on the right back of each mouse, and the mice were grouped administrated when the average tumor volume reached about 150 mm^3.
Dosage and frequency of administration: Day 0 to Day 7, 10 mg/kg; Day 7 to Day 14, 10 mg/kg; Day 14 to Day 21, 30 mg/kg;
Experimental index: The experimental index was used to examine whether tumor growth was inhibited, delayed or cured. Tumor diameters were measured with vernier calipers twice a week. The calculation formula of tumor volume was: V=0.5a×b^2, wherein a and b represented the long and short diameters of the tumor, respectively.

CDK6/CyclinD1 = CDK6/CyclinD1 (Homo sapiens (Human), UniProt Q00534); assay: CDK6/CyclinD1 enzyme activity test (LANCE Ultra TR-FRET); type: biochemical; conditions: 250 μM ATP, 25° C. 120 minutes, read-out: CDK6/Cyclin D1 IC50
Sequence of CDK6/CyclinD1 (Q00534 whole entry): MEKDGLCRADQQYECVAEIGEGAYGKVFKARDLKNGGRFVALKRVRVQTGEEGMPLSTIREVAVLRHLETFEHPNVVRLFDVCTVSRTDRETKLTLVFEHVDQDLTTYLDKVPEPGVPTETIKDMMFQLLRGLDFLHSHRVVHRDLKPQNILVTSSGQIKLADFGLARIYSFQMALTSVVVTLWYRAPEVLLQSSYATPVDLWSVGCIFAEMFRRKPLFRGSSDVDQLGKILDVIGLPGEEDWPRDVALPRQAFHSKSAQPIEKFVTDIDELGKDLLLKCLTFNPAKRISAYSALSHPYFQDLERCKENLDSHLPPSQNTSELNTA
Sequence of CDK6/CyclinD1 (P24385 whole entry partner): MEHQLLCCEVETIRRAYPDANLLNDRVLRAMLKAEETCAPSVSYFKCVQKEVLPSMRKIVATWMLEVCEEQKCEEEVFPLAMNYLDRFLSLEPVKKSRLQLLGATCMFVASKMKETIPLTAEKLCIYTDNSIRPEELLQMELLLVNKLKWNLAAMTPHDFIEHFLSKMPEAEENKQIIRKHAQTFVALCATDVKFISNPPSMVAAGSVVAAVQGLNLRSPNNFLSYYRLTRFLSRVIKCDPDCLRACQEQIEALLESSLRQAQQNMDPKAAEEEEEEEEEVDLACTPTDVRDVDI
Description: CDK6/CyclinD1 Enzyme Reaction System
Preparation of Kinase Buffer:
The composition of the buffer: 50 mM of hydroxyethylpiperazine ethanesulfonic acid solution at pH 7.5, 1 mM of ethylenediaminetetraacetic acid, 10 mM of magnesium chloride, 0.01% Brij-35, and 2 mM of dithiothreitol.
Enzymes, substrate LANCE Ultra ULight™-4E-BP-1(Thr37146) Peptide, ATP, and inhibitors were diluted by kinase buffer.
The compounds to be tested were diluted 5-fold with a multi-channel pipette to the eighth concentration, that is, from 40 μM to 0.512 nM, the concentration of DMSO was 4%, and a double-hole experiment was set up. […] The reaction system was reacted at 25° C. for 120 minutes. After the reaction, 5 μL mixture of EDTA and 2× LANCE™ Detection Buffer (1:1) were added to each well, the reaction was carried out at 25° C. for 5 minutes, after the reaction was completed, 5 μL of LANCE Ultra Eu-anti-P-4E-BP1(Thr37MS) (4 nM) was added to each well, the reaction was carried out at 25° C. for 60 minutes, the reaction signal was detected by Nivo instrument according to the principle of time-resolved fluorescence resonance energy transfer.
as §1

Structure (SMILES) | IC50 (CDK2/CyclinE1) | IC50 (OVCAR-3 cells) | Tumor volume (Day 0) [1] | Tumor volume (Day 7) [1] | Tumor volume (Day 14) [1] | Tumor volume (Day 21) [1] | IC50 (CDK6/CyclinD1)
CS(=O)(=O)N1CCC(Nc2ncc3cc(C(F)F)nc(N[C@@H]4CCCC4(F)F)c3n2)CC1 (single isomer, unassigned) [Compound 22] | 3.52 nM | 44 nM | 151 mm^3 | 243 mm^3 | 319 mm^3 | 238 mm^3 | 1.36 nM
Cc1cn(C)nc1Nc1nc(C(F)F)cc2cnc(NC3CCN(S(C)(=O)=O)CC3)nc12 [Compound 19] | 4.73 nM | 29 nM | 151 mm^3 | 246 mm^3 | 375 mm^3 | 392 mm^3 | 1.15 nM
Cn1cc(Cl)c(Nc2nc(C(F)F)cc3cnc(NC4CCN(S(C)(=O)=O)CC4)nc23)n1 [Compound 20] | 1.33 nM | 12 nM | 151 mm^3 | 236 mm^3 | 338 mm^3 | 363 mm^3 | 0.56 nM
